Experimental data as given in patent US9763445B2, “Safened herbicidal compositions comprising a pyridine carboxylic acid herbicide” (Dow AgroSciences, LLC, priority 2014, dated 2017).

Tests used:
[1] = tested on: wild mustard (SINAR); assay: Postemergence greenhouse trial, % visual injury on wild mustard; format: in vivo, Sinapis arvensis; conditions: SINAR
How it was run: (§1)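 Herbicide rates g ae/ha, safener (cloquintocet-mexyl) rates g ai/ha; spray carrier 1.5% v/v crop oil concentrate, 187 L/ha, 2nd–3rd leaf stage. Rating: visual % injury at 20-22 d.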

[2] = tested on: thistle (CIRAR); assay: Postemergence greenhouse trial, % visual injury on thistle; format: in vivo, Cirsium arvense; conditions: for % visual injury, Ob: CIRAR
How it was run: (§2)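 Visual injury, 0 (none) to 100 (complete kill), rated 20-22 d after overhead track-sprayer application at 187 L/ha; Colby's equation gave expected mixture responses. Herbicide (g ae/ha) and cloquintocet-mexyl safener (g ai/ha) diluted in aqueous 1.5% v/v Agri-dex, applied to weeds at 2–3 true leaves.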

[3] = tested on: common poppy (PAPRH); assay: Postemergence greenhouse trial, % visual injury on common poppy; format: in vivo, Papaver rhoeas; conditions: for % visual injury, Ob / % visual injury, observed (Ob): PAPRH
How it was run: as §1

[4] = tested on: lambsquarters (CHEAL); assay: Postemergence greenhouse trial, % visual injury on lambsquarters; format: in vivo, Chenopodium album; conditions: for % visual injury, Ob / % visual injury, observed (Ob): CHEAL
How it was run: as §2

[5] = compound 8 0 + CQC-m 4.375 g/ha

CCCCCC(C)OC(=O)COc1ccc(Cl)c2cccnc12 (centres unmarked) [CQC-m, cloquintocet-mexyl, reference compound]
0%: % visual injury, observed (Ob) [1, 5] | % visual injury, observed (Ob) ([1]; compound 8 0 + CQC-m 8.75 g/ha) | % visual injury, observed (Ob) ([1]; compound 8 0 + CQC-m 17.5 g/ha) | % visual injury, observed (Ob) ([1]; compound 8 0 + CQC-m 35 g/ha) | % visual injury, observed (Ob) ([1]; compound 8 0 + CQC-m 70 g/ha) | % visual injury, Ob ([2]; 4.375 g/ha, applied alone) | % visual injury, Ob ([2]; 8.75 g/ha, applied alone) | % visual injury, Ob ([2]; 17.5 g/ha, applied alone) | % visual injury, Ob ([2]; 35 g/ha, applied alone) | % visual injury, Ob ([2]; 70 g/ha, applied alone) | % visual injury, Ob ([2]; compound 0, CQC-m 4.375 g/ha) | % visual injury, Ob ([2]; compound 0, CQC-m 8.75 g/ha) | % visual injury, Ob ([2]; compound 0, CQC-m 17.5 g/ha) | % visual injury, Ob ([2]; compound 0, CQC-m 35 g/ha) | % visual injury, Ob ([2]; compound 0, CQC-m 70 g/ha) | pest or weed control at 4.375 g/ha ([2]; Cirsium arvense, post-emergence, alone, 4.375 g/ha, read-out: % visual injury, Ob) | pest or weed control at 8.75 g/ha ([2]; Cirsium arvense, post-emergence, alone, 8.75 g/ha, read-out: % visual injury, Ob) | pest or weed control at 17.5 g/ha ([2]; Cirsium arvense, post-emergence, alone, 17.5 g/ha, read-out: % visual injury, Ob) | pest or weed control at 35 g/ha ([2]; Cirsium arvense, post-emergence, alone, 35 g/ha, read-out: % visual injury, Ob) | pest or weed control at 70 g/ha ([2]; Cirsium arvense, post-emergence, alone, 70 g/ha, read-out: % visual injury, Ob) | % visual injury, Ob ([3]; 4.375 g/ha, applied alone) | % visual injury, Ob ([3]; 8.75 g/ha, applied alone) | % visual injury, Ob ([3]; 17.5 g/ha, applied alone) | % visual injury, Ob ([3]; 35 g/ha, applied alone) | % visual injury, Ob ([3]; 70 g/ha, applied alone) | % visual injury, Ob ([3]; compound 0, CQC-m 4.375 g/ha) | % visual injury, Ob ([3]; compound 0, CQC-m 8.75 g/ha) | % visual injury, Ob ([3]; compound 0, CQC-m 17.5 g/ha) | % visual injury, Ob ([3]; compound 0, CQC-m 35 g/ha) | % visual injury, Ob ([3]; compound 0, CQC-m 70 g/ha) | % visual injury, Ob ([3]; compound 0 g/ha, CQC-m 4.375 g/ha) | % visual injury, Ob ([3]; compound 0 g/ha, CQC-m 8.75 g/ha) | % visual injury, Ob ([3]; compound 0 g/ha, CQC-m 17.5 g/ha) | % visual injury, Ob ([3]; compound 0 g/ha, CQC-m 35 g/ha) | % visual injury, Ob ([3]; compound 0 g/ha, CQC-m 70 g/ha) | % visual injury, observed (Ob) [3, 5] | % visual injury, observed (Ob) ([3]; compound 8 0 + CQC-m 8.75 g/ha) | % visual injury, observed (Ob) ([3]; compound 8 0 + CQC-m 17.5 g/ha) | % visual injury, observed (Ob) ([3]; compound 8 0 + CQC-m 35 g/ha) | % visual injury, observed (Ob) ([3]; compound 8 0 + CQC-m 70 g/ha) | pest or weed control at 4.375 g/ha ([3]; Papaver rhoeas, post-emergence, alone, 4.375 g/ha, read-out: % visual injury, Ob) | pest or weed control at 8.75 g/ha ([3]; Papaver rhoeas, post-emergence, alone, 8.75 g/ha, read-out: % visual injury, Ob) | pest or weed control at 17.5 g/ha ([3]; Papaver rhoeas, post-emergence, alone, 17.5 g/ha, read-out: % visual injury, Ob) | pest or weed control at 35 g/ha ([3]; Papaver rhoeas, post-emergence, alone, 35 g/ha, read-out: % visual injury, Ob) | pest or weed control at 70 g/ha ([3]; Papaver rhoeas, post-emergence, alone, 70 g/ha, read-out: % visual injury, Ob) | % visual injury, Ob ([4]; 4.375 g/ha, applied alone) | % visual injury, Ob ([4]; 8.75 g/ha, applied alone) | % visual injury, Ob ([4]; 17.5 g/ha, applied alone) | % visual injury, Ob ([4]; 35 g/ha, applied alone) | % visual injury, Ob ([4]; 70 g/ha, applied alone) | % visual injury, Ob ([4]; compound 0, CQC-m 4.375 g/ha) | % visual injury, Ob ([4]; compound 0, CQC-m 8.75 g/ha) | % visual injury, Ob ([4]; compound 0, CQC-m 17.5 g/ha) | % visual injury, Ob ([4]; compound 0, CQC-m 35 g/ha) | % visual injury, Ob ([4]; compound 0, CQC-m 70 g/ha) | % visual injury, observed (Ob) [4, 5] | % visual injury, observed (Ob) ([4]; compound 8 0 + CQC-m 8.75 g/ha) | % visual injury, observed (Ob) ([4]; compound 8 0 + CQC-m 17.5 g/ha) | % visual injury, observed (Ob) ([4]; compound 8 0 + CQC-m 35 g/ha) | % visual injury, observed (Ob) ([4]; compound 8 0 + CQC-m 70 g/ha) | pest or weed control at 4.375 g/ha ([4]; Chenopodium album, post-emergence, alone, 4.375 g/ha, read-out: % visual injury, Ob) | pest or weed control at 8.75 g/ha ([4]; Chenopodium album, post-emergence, alone, 8.75 g/ha, read-out: % visual injury, Ob) | pest or weed control at 17.5 g/ha ([4]; Chenopodium album, post-emergence, alone, 17.5 g/ha, read-out: % visual injury, Ob) | pest or weed control at 20 g/ha ([4]; Chenopodium album, post-emergence, alone, 20 g/ha, read-out: % visual injury, Ob) | pest or weed control at 35 g/ha ([4]; Chenopodium album, post-emergence, alone, 35 g/ha, read-out: % visual injury, Ob) | pest or weed control at 40 g/ha ([4]; Chenopodium album, post-emergence, alone, 40 g/ha, read-out: % visual injury, Ob) | pest or weed control at 70 g/ha ([4]; Chenopodium album, post-emergence, alone, 70 g/ha, read-out: % visual injury, Ob) | pest or weed control at 80 g/ha ([4]; Chenopodium album, post-emergence, alone, 80 g/ha, read-out: % visual injury, Ob)
